# Test results taken from patent US20150104415A1, “Treatments of Hepatitis C virus infection” (DEBIOPHARM INTERNATIONAL SA, priority 2011, published 2015).
# System: HCV GT1
# Experiment: Randomized, double-blind, placebo-controlled phase II study of DEB025 plus SOC (peg-IFNα2a plus RBV); virologic response by HCV RNA
# Assay type: in vivo, patients
# Protocol: This is an international, multicentre, randomized, double-blind, placebo-controlled, 4-arm, parallel-group phase II study comparing therapy with three doses of DEB025 (600 mg QD, 800 mg QD and 400 mg BID) plus SOC (peg-IFNα2a once weekly plus RBV BID) versus triple therapy with placebo matching DEB025 plus SOC in chronic HCV GT1 patients who were non-responders to prior SOC treatment, or who have relapsed after SOC treatment.
# Approximately 344 patients will be randomized into one of 4 treatment arms (A, B, C (C1/C2) and D) in a 1:1:1:1 ratio. C1 and C2 patients will be randomized in a 1:1 ratio within arm C.
# The randomization will be stratified by response status to previous treatment (non-responders/relapsers), BMI (<25 kg/m2 or ≧25 kg/m2) and IL28B polymorphism (CC or CT/TT) at screening.
# The ratio non-responders and relapsers should be kept at 50% (172 patients) of the study population. An international, multicentre, randomized, double-blind, placebo-controlled, 4-arm, parallel-group phase II study comparing triple therapy with three doses of alisporivir (400 mg, 600 mg or 800 mg)+standard of care (SOC) versus triple therapy with placebo matching alisporivir plus SOC in […] chronic HCV GT1 patients who were non-responders to prior SOC treatment, or relapsers after SOC treatment is provided.
# Patients are randomized into one of 4 treatment arms as described below in a 1:1:1:1 ratio. The randomization will be stratified by response status to previous treatment (non-responders/relapsers), BMI (<25 kg/m2 or ≧25 kg/m2) and IL28B polymorphism (CC or CT/TT) at screening. The ratio non-responders and relapsers should be kept at 50% (172 patients) of the study population.
# • Alisporivir/Placebo 3 capsules of 200 mg (600 mg) alisporivir 2×/day (BID) orally for 1 week (loading dose) followed by 3 capsules of 200 mg (600 mg) alisporivir once per day (QD) plus 1 capsule of placebo QD for 47 weeks. Only in week 17 (dummy loading) patients receive 3 capsules of 200 mg (600 mg) alisporivir in the morning and 3 capsules of placebo in the evening. • Peg-IFNα2a 180 μg subcutaneously (s.c.) once weekly for 48 weeks • Ribavirin 1000 mg/day (<75 kg) or 1200 mg/day (≧75 kg) orally in two divided doses for 48 weeks
# • alisporivir/Placebo 3 capsules of 200 mg (600 mg) alisporivir 2×/day orally for 1 week (loading dose) followed by 4 capsules alisporivir (800 mg) QD for 47 weeks. Only in week 17 (dummy loading) patients receive 3 capsules of 200 mg (600 mg) alisporivir in the morning and 1 capsule of 200 mg alisporivir plus 2 capsules of placebo in the evening. • Peg-IFNα2a 180 μg subcutaneously (s.c.) once weekly for 48 weeks • Ribavirin 1000 mg/day (<75 kg) or 1200 mg/day (≧75 kg) orally in two divided doses for 48 weeks Treatment C1 (will change to active treatment if cEVR not reached=arm C1A) • Placebo 3 capsules of placebo BID orally for 1 week (loading dose) followed by 4 capsules placebo QD for 47 weeks. […]
# • Placebo alisporivir 1 capsule of placebo QD (in the morning) orally for 48 weeks 2 capsules of 200 mg (400 mg) alisporivir 2×/day orally for 48 weeks
# • 180 μg s.c. once weekly for 48 weeks • Ribavirin 1000 mg/day (<75 kg) or 1200 mg/day (≧75 kg) orally in two divided doses for 48 weeks Treatment C2 (will change to active treatment if cEVR not reached=arm C2A) • DEB025 placebo 3 capsules of placebo orally in the morning and 2 capsules of placebo in the evening for 48 weeks. • Peg-IFNα2a 180 μg s.c. once weekly for 48 weeks • Ribavirin 1000 mg/day (<75 kg) or 1200 mg/day (≧75 kg) orally in two divided doses for 48 weeks
# • Placebo 3 capsules of placebo orally as morning dose and 2 capsules of placebo as evening dose for 16 weeks. […]
# [1] = Arm A, DEB 600 QD plus peg-IFNα2a/RBV, N = 81
# [2] = Arm B, DEB 800 QD plus peg-IFNα2a/RBV, N = 84
# [3] = Arm D, DEB 400 BID plus peg-IFNα2a/RBV, N = 78
# [4] = DEB 400 BID arm plus SOC, Week 12
structure (smiles),measurement,setting,value
"C/C=C/C[C@@H](C)[C@@H](O)[C@H]1C(=O)N[C@@H](CC)C(=O)N(C)[C@H](C)C(=O)N(CC)[C@@H](C(C)C)C(=O)N[C@@H](C(C)C)C(=O)N(C)[C@@H](CC(C)C)C(=O)N[C@@H](C)C(=O)N[C@H](C)C(=O)N(C)[C@@H](CC(C)C)C(=O)N(C)[C@@H](CC(C)C)C(=O)N(C)[C@@H](C(C)C)C(=O)N1C [DEB025, alisporivir]",RVR (rapid virologic response): patients with HCV RNA < LOQ (25 IU/mL) after 4 weeks of treatment,"Arm A, DEB 600 QD (600 mg BID 1 week loading) plus peg-IFNα2a/RBV, N = 81, GT1 relapsers/non-responders",19 (23.5) n (%)
same,EVR: HCV RNA decrease >= 2 log10 from baseline or < LOQ (25 IU/mL) after 12 weeks,[1],64 (79.0) n (%)
same,"cEVR (complete early virologic response, primary endpoint): HCV RNA < LOQ (25 IU/mL) after 12 weeks",[1],36 (44.4) n (%)
same,pEVR (partial early virologic response): HCV RNA decrease >= 2 log10 from baseline and > LOQ (25 IU/mL) after 12 weeks,[1],28 (34.6) n (%)
same,RVR (rapid virologic response): patients with HCV RNA < LOQ (25 IU/mL) after 4 weeks of treatment,"Arm B, DEB 800 QD (600 mg BID 1 week loading) plus peg-IFNα2a/RBV, N = 84",18 (21.4) n (%)
same,EVR: HCV RNA decrease >= 2 log10 from baseline or < LOQ (25 IU/mL) after 12 weeks,[2],72 (85.7) n (%)
same,"cEVR (complete early virologic response, primary endpoint): HCV RNA < LOQ (25 IU/mL) after 12 weeks",[2],48 (57.1) n (%)
same,pEVR (partial early virologic response): HCV RNA decrease >= 2 log10 from baseline and > LOQ (25 IU/mL) after 12 weeks,[2],24 (28.6) n (%)
same,EVR: HCV RNA decrease >= 2 log10 from baseline or < LOQ (25 IU/mL) after 12 weeks,[3],63 (80.8) n (%)
same,RVR (rapid virologic response): patients with HCV RNA < LOQ (25 IU/mL) after 4 weeks of treatment,[3],29 (37.2) n (%)
same,"cEVR (complete early virologic response, primary endpoint): HCV RNA < LOQ (25 IU/mL) after 12 weeks",[3],55 (70.5) n (%)
same,pEVR (partial early virologic response): HCV RNA decrease >= 2 log10 from baseline and > LOQ (25 IU/mL) after 12 weeks,[3],8 (10.3) n (%)
same,proportion achieving RVR,"DEB 400 BID arm plus SOC, Week 4",37.2%
same,proportion achieving EVR,[4],80.8%
same,proportion achieving cEVR,[4],70.5%
same,patients achieved RVR,"Week 4, all the DEB025 treatment arms (600 QD, 800 QD, 400 BID) plus SOC",> 20%
same,patients achieved EVR,"Week 12, all the DEB025 treatment arms (600 QD, 800 QD, 400 BID) plus SOC",≥ 79%
